In patent US20090253209A1, “Method of obtaining BZM purity, quantity of [123I]IBZM labeled ligand and quantity of BZM free ligand” (ATOMIC ENERGY COUNCIL - INSTITUTE OF NUCLEAR ENERGY RESEARCH, priority 2008, published 2009):

Assays:
[1] = solution stability test of BZM solution by HPLC; assay type: physicochemical; conditions: BZM dissolved in DMSO, room temperature, three days
Source text: (7) For the solution stability test, a sum of BZM solution is put under a room temperature to be processed with HPLC analysis for three days, as shown in FIG. 12. Consequently, the difference of BZM retention time is 0.64%; the resolution difference is 5.81%; the purity difference is −0.37%; the difference of a linear least square regression slope is −3.18%; and linear correlation coefficients are all greater than 0.9997.

[2] = system: D2/D3 receptor (D2/D3R); conditions: in rats; compared with [^123I] IBZM; cited from earlier work

solution stability (in words) [1]: good stability
purity difference (solution stability) ([1]; HPLC analysis): −0.37%
SMILES: CCN1CCC[C@H]1CNC(=O)c1c(O)cccc1OC [BZM, (S)-(-)-2-hydroxy-6-methoxy-N-[(1-ethyl-2-pyrrolidinyl)methyl]benzamide]
bonding to D2/D3 receptor relative to [^123I] IBZM [2]: far small bonding to D2/D3 receptor (D2/D3R) than [^123I] IBZM
